Assay results as given in patent publication US20230285570A1, “THERAPEUTICALLY USEFUL CURE-PRO MOLECULES FOR E3 LIGASE MEDIATED DEGRADATION OF PROTEINS, AND METHODS OF MAKING AND USING THEM” (CORNELL UNIVERSITY, priority 2020, published 2023).
“Also recorded” adds a separate entry of the source.

Legend:
c-MYC [1] = target: T1, c-MYC (Homo sapiens, UniProt P01106); assay: Summary of C-MYC degradation by CURE-PRO pairs, estimated from Western Blot or WES; type: cell-based; parameters: endogenous in cells; host or cells: HT29; details: for Degradation of C-MYC, combination with CRBN ligand 8046: Table 7, aryl-boronic acid MYC ligand + 8046; for Degradation of C-MYC, combination with CRBN ligand 8049: Table 10, aromatic 1,2-diol MYC ligand + 8049; for Degradation of C-MYC, combination with CRBN ligand 8048: Table 10, aromatic 1,2-diol MYC ligand + 8048; for Degradation of C-MYC, combination with CRBN ligand 8047: Table 7, aryl-boronic acid MYC ligand + 8047
T1 sequence (P01106 whole entry): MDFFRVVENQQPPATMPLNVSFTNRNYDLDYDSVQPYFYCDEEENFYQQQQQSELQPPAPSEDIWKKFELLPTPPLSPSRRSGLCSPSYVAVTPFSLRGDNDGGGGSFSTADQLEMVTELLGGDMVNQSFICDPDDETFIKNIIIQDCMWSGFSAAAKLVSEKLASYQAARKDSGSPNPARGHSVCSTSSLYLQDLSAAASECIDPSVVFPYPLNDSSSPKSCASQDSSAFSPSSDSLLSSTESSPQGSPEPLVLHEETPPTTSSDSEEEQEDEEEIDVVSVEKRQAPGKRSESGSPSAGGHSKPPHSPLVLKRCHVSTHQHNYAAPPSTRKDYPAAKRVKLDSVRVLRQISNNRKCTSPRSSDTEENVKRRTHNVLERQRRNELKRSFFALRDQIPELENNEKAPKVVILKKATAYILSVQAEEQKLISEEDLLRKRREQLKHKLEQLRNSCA
Method: (§1) Namalwa, Ramosm HeLa, MCF7, or HT29 HCT116 cells (2.5-3×10^6) were treated for 24 hours with the indicated compounds solubilized in DMSO. The cells were washed in ice-cold PBS and were then lysed in RIPA lysis buffer (150 mM NaCl, 5 mM EDTA, 1% NP-40, 0.5% sodium deoxycholate, 0.1% SDS, 50 mM Tris, pH 8.0.) with Roche protease inhibitor complete cocktail and phosphatase inhibitors (10 mM sodium fluoride, 10 mM sodium pyrophosphate, 1 mM sodium orthovanadate and 20 mM β-glycerophosphate). The total protein concentrations were determined by Bradford Protein Assay (Pierce) and 10-20 μg of protein was loaded onto 4-15% Tris-Glycine gradient gels (Biorad). After standard gel electrophoresis, the separated proteins were transferred to PVDF membrane by wet transfer. The immunoblots were then blocked for 1 hour in 5% skim milk in TBST or 5% BSA in TBST, according to manufacturer's instructions, before an overnight incubation at 4° C. with indicated antibodies and membranes. Membranes were then incubated with the appropriate horseradish peroxidase-conjugated secondary antibodies (1:5,000 dilution) for 1 h at room temperature and the bands were visualized using the Clarity Max Western ECL Substrate (Biorad) and the ChemiDoc Imaging System (Biorad). Signal was detected with ECL Western Blotting Substrate (Pierce) and X-ray film processed with a Konica SRX-101 X-ray film processor or captured by Bio-Rad's Chemidoc Imaging system.
WES Simple analysis was performed on WES system (ProteinSimple-Biotechne) according to the manufacturer's instructions. Total protein concentrations of cell lysates were determined by the Pierce BCA kit (Thermo Fisher). 3 μL of 0.3 μg/μL of the protein lysate was loaded onto a 12- to 230-kDa WES assay plate (ProteinSimple) where 300 nL sample was withdrawn through a capillary, subjected to electrophoretic separation of proteins by size, and followed by the simultaneous, HRP-based detection of proteins using the Anti-Rabbit Detection Module (Proteinsimple: #DM-001). The electropherograms were checked then the automatic peak detection was manually corrected if it was required.
A black check mark indicates efficacy of 30% to 70% or higher protein degradation.

c-MYC [2] = target: T1, c-MYC; assay: CURE-PRO-mediated c-MYC degradation in HT29 cells, Western blot; type: cell-based; parameters: endogenous in cells; host or cells: HT29
Method: as §1
HT29 cells (2.5×10^6) were treated for 24 h with the compounds solubilized in DMSO. Compounds were added at 10 nM-10 μM each, as indicated in the description of the figures. Standardized protein samples were electrophoresed and imaged as described in the immunoblotting section above. c-MYC monomers (10058-F4 derivatives comprising catechol linkers), and CRBN ligands, 8048 and 8049 (pomalidomide derivatives comprising boronic acid linkers) combined in a 1:1 ratio.
HT29 cells (2.5×10^6) were treated for 24 h with the compounds solubilized in DMSO. Compounds were added at 100 nM-10 μM each.
(§2) HT29 cells (2.5×10^6) were treated for 24 h with the compounds solubilized in DMSO. Compounds were added at 100 nM-10 μM each. Standardized protein samples were electrophoresed and imaged as described in the immunoblotting section above. c-MYC monomer, MYC-E1, (a 10058-F4 derivative comprising boronic acid linkers), and CRBN ligands, 8046, 8047 and 8066 (pomalidomide derivatives comprising diol linkers) combined in a 1:1 ratio.
as §2, with “monomers, MYC-E6 (FIG. 90), MYC-E10 (FIG. 91), and MYC-E16 (FIG. 92) (10074-G5 derivatives” for “monomer, MYC-E1, (a 10058-F4 derivative”
(§3) HT29 cells (2.5×10^6) were treated for 24 h with the compounds solubilized in DMSO. Compounds were added at 10 nM-10 μM each. Standardized protein samples were electrophoresed and imaged as described in the immunoblotting section above. c-MYC monomer, MYC-N16 (FIG. 93) (10074-G5 derivatives comprising diol linkers), and VHL ligands, 8297 and 8298 (VH-298 derivatives comprising boronic acid linkers) were combined in a 1:1 ratio.
as §3, with “monomers, MYC-E7” for “monomer, MYC-N16”, “96), MYC-E10 (FIG. 97), and MYC-E17 (FIG. 98),” for “93)”, “boronic acid” for “diol”, “diol” for “boronic acid”

[3] = 1:1 with CRBN ligand 8046, HT29, 24 h, 100 nM-10 μM each
[4] = 1:1 with CRBN ligand 8047, HT29, 24 h, 100 nM-10 μM each
[5] = 1:1 with CRBN ligand 8066, HT29, 24 h, 100 nM-10 μM each
[6] = 1:1 with CRBN ligand 8048, HT29, 24 h, 10 nM-10 μM each
[7] = c-MYC monomer alone, HT29, 24 h, 10 nM-10 μM
[8] = 1:1 with VHL ligand 8298, HT29, 24 h, 10 nM-10 μM each

| Structure (SMILES) | Degradation of C-MYC, combination with CRBN ligand 8046 (c-MYC [1]) | c-MYC degradation (c-MYC [2]; [3]) | c-MYC degradation (c-MYC [2]; [4]) | c-MYC degradation (c-MYC [2]; [6]) | c-MYC degradation (c-MYC [2]; [7]) | Degradation of C-MYC, combination with CRBN ligand 8048 (c-MYC [1]) | also measured |
| --- | --- | --- | --- | --- | --- | --- | --- |
| CCc1ccc(/C=C2\SC(=O)N(Cc3cccc(B(O)O)c3)C2=O)cc1 [MYC-E1] | √ (A black check mark indicates efficacy of 30% to 70% or higher protein degradation) | Some degradation is seen; also recorded: causes degradation of c-MYC | Some degradation is seen; also recorded: no degradation was observed |  |  |  | Degradation of C-MYC, combination with CRBN ligand 8066 (c-MYC [1]; Table 7, aryl-boronic acid MYC ligand + 8066): √ (A black check mark indicates efficacy of 30% to 70% or higher protein degradation); c-MYC degradation (c-MYC [2]; [5]): no degradation was observed |
| CCc1ccc(/C=C2\SC(=O)N(CCNC(=O)c3ccc(O)c(O)c3)C2=O)cc1 [MYC-N7] |  |  |  | cause c-MYC protein degradation; also recorded: caused degradation of c-MYC | there is no degradation of c-MYC |  | Degradation of C-MYC, combination with CRBN ligand 8049 (c-MYC [1]): √ (A black check mark indicates efficacy of 30% to 70% or higher protein degradation); c-MYC degradation (c-MYC [2]; 1:1 with CRBN ligand 8049, HT29, 24 h, 10 nM-10 μM each): cause c-MYC protein degradation; also recorded: caused degradation of c-MYC |
| O=C(NCc1cccc(B(O)O)c1)c1ccc(Nc2ccc([N+](=O)[O-])c3nonc23)cc1 [MYC-E10] | √ (A black check mark indicates efficacy of 30% to 70% or higher protein degradation) | caused c-MYC degradation |  |  |  |  | c-MYC degradation (c-MYC [2]; [8]): caused degradation of c-MYC; c-MYC degradation (c-MYC [2]; 1:1 with VHL ligand 8305, HT29, 24 h, 10 nM-10 μM each): caused loss of c-MYC protein |
| CCc1ccc(/C=C2\SC(=O)N(CCc3cccc(O)c3O)C2=O)cc1 [MYC-N4] |  |  |  | caused c-MYC degradation | there is no degradation of c-MYC | √ (A black check mark indicates efficacy of 30% to 70% or higher protein degradation) |  |
| O=C(NCc1cccc(O)c1O)c1ccccc1Nc1ccc([N+](=O)[O-])c2nonc12 [MYC-N16] |  |  |  | caused c-MYC degradation | there is no degradation of c-MYC; also recorded: no loss of c-MYC protein was observed | √ (A black check mark indicates efficacy of 30% to 70% or higher protein degradation) | Degradation of C-MYC, combination with MDM2 ligand 8312 (c-MYC [1]; Table 11, aromatic 1,2-diol MYC ligand + 8312): √ (A black check mark indicates efficacy of 30% to 70% or higher protein degradation); Degradation of C-MYC, combination with VHL ligand 8297 (c-MYC [1]; Table 12, aromatic 1,2-diol MYC ligand + 8297): √ (A black check mark indicates efficacy of 30% to 70% or higher protein degradation); Degradation of C-MYC, combination with VHL ligand 8298 (c-MYC [1]; Table 12, aromatic 1,2-diol MYC ligand + 8298): √ (A black check mark indicates efficacy of 30% to 70% or higher protein degradation); c-MYC degradation (c-MYC [2]; 1:1 with VHL ligand 8297, HT29, 24 h, 10 nM-10 μM each): caused degradation of c-MYC; c-MYC degradation (c-MYC [2]; [8]): caused degradation of c-MYC |
| CCc1ccc(/C=C2\CC(=O)N(CCNC(=O)[C@H]3C[C@@H]4C[C@H]3[C@@H](O)[C@H]4O)C2=O)cc1 [MYC-N29] |  |  |  | caused c-MYC degradation | there is no degradation of c-MYC | √ (A black check mark indicates efficacy of 30% to 70% or higher protein degradation) |  |
| CCc1ccc(/C=C2\SC(=O)N(CC[C@H]3C[C@@H]4C[C@H]3[C@@H](O)[C@H]4O)C2=O)cc1 [MYC-N23] |  |  |  | caused c-MYC degradation | there is no degradation of c-MYC |  | Degradation of C-MYC, combination with CRBN ligand 8049 (c-MYC [1]): √ (A black check mark indicates efficacy of 30% to 70% or higher protein degradation) |
| Cc1ccc(CNC(=O)c2ccccc2Nc2ccc([N+](=O)[O-])c3nonc23)cc1B(O)O [MYC-E16] |  |  | Some degradation is seen; also recorded: caused c-MYC degradation |  |  |  | Degradation of C-MYC, combination with CRBN ligand 8047 (c-MYC [1]): √ (A black check mark indicates efficacy of 30% to 70% or higher protein degradation) |
| O=[N+]([O-])c1ccc(Nc2ccccc2-c2ccc(B(O)O)cc2)c2nonc12 [MYC-E6] | √ (A black check mark indicates efficacy of 30% to 70% or higher protein degradation) | no degradation was observed | caused degradation of c-MYC |  |  |  | Degradation of C-MYC, combination with CRBN ligand 8047 (c-MYC [1]): √ (A black check mark indicates efficacy of 30% to 70% or higher protein degradation); c-MYC degradation (c-MYC [2]; [5]): no degradation was observed |
